The source made the active and inactive calls. The calls are words filed in the database; no cut-off is given here.
Experiments:
Mus musculus [1] = test: Anticonvulsant activity in albino CF1 mouse assessed as protection against maximal electroshock-induced seizures at 35 mg/kg, ip after 0.25 hrs; assay type: functional, organism-based; design: dose 35 mg/kg
Mus musculus [2] = test: Anticonvulsant activity in albino CF1 mouse assessed as protection against subcutaneous metrazole-induced seizures at 30 mg/kg, ip after 4 hrs; assay type: functional, organism-based; design: dose 30 mg/kg
Mus musculus [3] = test: Anticonvulsant activity in albino CF1 mouse assessed as protection against maximal electroshock-induced seizures at 70 mg/kg, ip after 0.25 hrs; assay type: functional, organism-based; design: dose 70 mg/kg
Mus musculus [4] = test: Anticonvulsant activity ip dosed albino CF1 mouse assessed as protection against maximal electroshock-induced seizures after 0.25 hrs; assay type: functional
Mus musculus [5] = test: Neurotoxicity in ip dosed albino CF1 mouse assessed as minimum dose required to cause toxicity after 0.5 hrs by rotarod test; assay type: organism-based; settings: in vivo
Mus musculus [6] = test: Anticonvulsant activity in albino CF1 mouse assessed as protection against maximal electroshock-induced seizures at 30 mg/kg, ip after 4 hrs; assay type: functional, organism-based; design: dose 30 mg/kg
Mus musculus [7] = test: Anticonvulsant activity in albino CF1 mouse assessed as protection against subcutaneous metrazole-induced seizures at 30 mg/kg, ip after 0.5 hrs; assay type: functional, organism-based; design: dose 30 mg/kg
Mus musculus [8] = test: Neurotoxicity in albino CF1 mouse assessed as minimal motor impairment at 300 mg/kg, ip after 4 hrs by rotarod test; assay type: toxicity, organism-based; design: dose 300 mg/kg, route intraperitoneal; settings: in vivo
Mus musculus [9] = test: Neurotoxicity in albino CF1 mouse assessed as minimal motor impairment at 30 to 300 mg/kg, ip after 0.5 hrs by rotarod test; settings: in vivo
Mus musculus [10] = test: Neurotoxicity in albino CF1 mouse assessed as minimal motor impairment at 350 mg/kg, ip after 0.25 hrs by rotarod test; assay type: toxicity, organism-based; design: dose 350 mg/kg, route intraperitoneal; settings: in vivo
Rattus norvegicus [11] = test: Anticonvulsant activity in albino Sprague-Dawley rat assessed as protection against maximal electroshock-induced seizures at 30 mg/kg, po after 0.5 hrs; assay type: functional, organism-based; design: dose 30 mg/kg
Mus musculus [12] = test: Anticonvulsant activity in albino CF1 mouse assessed as protection against maximal electroshock-induced seizures at 300 mg/kg, ip after 4 hrs; assay type: functional, organism-based; design: dose 300 mg/kg
Rattus norvegicus [13] = test: Anticonvulsant activity in albino Sprague-Dawley rat assessed as protection against maximal electroshock-induced seizures at 30 mg/kg, po after 2 hrs; assay type: functional, organism-based; design: dose 30 mg/kg
Mus musculus [14] = species on record: Mus musculus; test: Protective index, ratio of TD50 for albino CF1 mouse by rotarod test to ED50 for albino CF1 mouse by maximal electroshock seizures test; assay type: functional
Mus musculus [15] = test: Anticonvulsant activity against subcutaneous metrazole-induced seizures in ip dosed albino CF1 mouse assessed as minimum effective dose after 0.5 hrs; assay type: functional; settings: albino CF1, 0.5 h, read-out: MED
Mus musculus [16] = test: Anticonvulsant activity against maximal electroshock-induced seizures in ip dosed albino CF1 mouse assessed as minimum effective dose after 4 hrs; assay type: functional; settings: read-out: MED
Mus musculus [17] = test: Anticonvulsant activity in albino CF1 mouse assessed as protection against maximal electroshock-induced seizures at 100 mg/kg, ip after 0.5 hrs; assay type: functional, organism-based; design: dose 100 mg/kg
Mus musculus [18] = test: Anticonvulsant activity in albino CF1 mouse assessed as protection against subcutaneous metrazole-induced seizures at 100 mg/kg, ip after 4 hrs; assay type: functional, organism-based; design: dose 100 mg/kg
Mus musculus [19] = test: Neurotoxicity in albino CF1 mouse assessed as minimal motor impairment at 100 mg/kg, ip after 0.5 hrs by rotarod test; assay type: toxicity, organism-based; design: dose 100 mg/kg, route intraperitoneal; settings: in vivo
Rattus norvegicus [20] = test: Anticonvulsant activity in albino Sprague-Dawley rat assessed as protection against maximal electroshock-induced seizures at 30 mg/kg, po after 4 hrs; assay type: functional, organism-based; design: dose 30 mg/kg
Mus musculus [21] = test: Anticonvulsant activity in albino CF1 mouse assessed as protection against subcutaneous metrazole-induced seizures at 300 mg/kg, ip after 0.5 hrs; assay type: functional, organism-based; design: dose 300 mg/kg
Mus musculus [22] = test: Neurotoxicity in albino CF1 mouse assessed as minimal motor impairment at 100 mg/kg, ip after 4 hrs by rotarod test; assay type: toxicity, organism-based; design: dose 100 mg/kg, route intraperitoneal; settings: in vivo
Mus musculus [23] = test: Neurotoxicity in albino CF1 mouse assessed as minimal motor impairment at 300 mg/kg, ip after 0.5 hrs by rotarod test; assay type: toxicity, organism-based; design: dose 300 mg/kg, route intraperitoneal; settings: in vivo
Mus musculus [24] = test: Protective index, ratio of TD50 for albino CF1 mouse by rotarod test to ED50 for albino CF1 mouse by subcutaneous metrazol seizures test; assay type: functional
Rattus norvegicus [25] = test: Anticonvulsant activity in albino Sprague-Dawley rat assessed as protection against maximal electroshock-induced seizures at 30 mg/kg, po after 0.25 hrs; assay type: functional, organism-based; design: dose 30 mg/kg
Mus musculus [26] = test: Neurotoxicity in albino CF1 mouse assessed as minimal motor impairment at 30 mg/kg, ip after 0.5 hrs by rotarod test; assay type: toxicity, organism-based; design: dose 30 mg/kg, route intraperitoneal; settings: in vivo
Mus musculus [27] = test: Anticonvulsant activity ip dosed albino CF1 mouse assessed as protection against subcutaneous metrazole-induced seizures after 0.25 hrs; assay type: functional; settings: albino CF1, 0.25 h
Mus musculus [28] = test: Neurotoxicity in ip dosed albino CF1 mouse assessed as minimum dose required to cause toxicity after 4 hrs by rotarod test; assay type: organism-based; settings: in vivo
Mus musculus [29] = test: Anticonvulsant activity against subcutaneous metrazole-induced seizures in ip dosed albino CF1 mouse assessed as minimum effective dose after 4 hrs; assay type: functional; settings: albino CF1, 4 h, read-out: MED
Mus musculus [30] = test: Anticonvulsant activity in albino CF1 mouse assessed as protection against subcutaneous metrazole-induced seizures at 70 mg/kg, ip after 0.25 hrs; assay type: functional, organism-based; design: dose 70 mg/kg
Mus musculus [31] = test: Neurotoxicity in albino CF1 mouse assessed as minimal motor impairment at 70 mg/kg, ip after 0.25 hrs by rotarod test; assay type: toxicity, organism-based; design: dose 70 mg/kg, route intraperitoneal; settings: in vivo
Mus musculus [32] = test: Anticonvulsant activity in albino CF1 mouse assessed as protection against maximal electroshock-induced seizures at 300 mg/kg, ip after 0.5 hrs; assay type: functional, organism-based; design: dose 300 mg/kg
Mus musculus [33] = test: Neurotoxicity in ip dosed albino CF1 mouse assessed as minimal motor impairment after 0.25 hrs by rotarod test; assay type: toxicity, organism-based; settings: in vivo
Mus musculus [34] = test: Anticonvulsant activity in albino CF1 mouse assessed as protection against subcutaneous metrazole-induced seizures at 300 mg/kg, ip after 4 hrs; assay type: functional, organism-based; design: dose 300 mg/kg
Mus musculus [35] = test: Anticonvulsant activity in albino CF1 mouse assessed as protection against subcutaneous metrazole-induced seizures at 100 mg/kg, ip after 0.5 hrs; assay type: functional, organism-based; design: dose 100 mg/kg
Mus musculus [36] = test: Neurotoxicity in albino CF1 mouse assessed as minimal motor impairment at 30 to 300 mg/kg, po after 4 hrs by rotarod test; assay type: toxicity, organism-based; design: dose 30-300 mg/kg, route oral; settings: in vivo
Rattus norvegicus [37] = test: Neurotoxicity in albino Sprague-Dawley rat assessed as minimal motor impairment at 30 mg/kg, po by rotarod test; assay type: toxicity, organism-based; design: dose 30 mg/kg, route oral; settings: in vivo
[38] = molecular target: Sodium channel protein type 2 subunit alpha (Homo sapiens, UniProt Q99250); test: Inhibition of human NaV1.2 expressed in HEK cells at -60 mV holding potential by patch clamp recording technique; assay type: cell-based, HEK293
Mus musculus [39] = test: Neurotoxicity in albino CF1 mouse assessed as minimal motor impairment at 30 mg/kg, ip after 4 hrs by rotarod test; assay type: toxicity, organism-based; design: dose 30 mg/kg, route intraperitoneal; settings: in vivo
Mus musculus [40] = test: Anticonvulsant activity in albino CF1 mouse assessed as protection against maximal electroshock-induced seizures at 30 mg/kg, ip after 0.5 hrs; assay type: functional, organism-based; design: dose 30 mg/kg
Mus musculus [41] = test: Anticonvulsant activity against maximal electroshock-induced seizures in ip dosed albino CF1 mouse assessed as minimum effective dose after 0.5 hrs; assay type: functional; settings: read-out: MED

Sodium channel protein type 2 subunit alpha, sequence (Q99250 whole entry): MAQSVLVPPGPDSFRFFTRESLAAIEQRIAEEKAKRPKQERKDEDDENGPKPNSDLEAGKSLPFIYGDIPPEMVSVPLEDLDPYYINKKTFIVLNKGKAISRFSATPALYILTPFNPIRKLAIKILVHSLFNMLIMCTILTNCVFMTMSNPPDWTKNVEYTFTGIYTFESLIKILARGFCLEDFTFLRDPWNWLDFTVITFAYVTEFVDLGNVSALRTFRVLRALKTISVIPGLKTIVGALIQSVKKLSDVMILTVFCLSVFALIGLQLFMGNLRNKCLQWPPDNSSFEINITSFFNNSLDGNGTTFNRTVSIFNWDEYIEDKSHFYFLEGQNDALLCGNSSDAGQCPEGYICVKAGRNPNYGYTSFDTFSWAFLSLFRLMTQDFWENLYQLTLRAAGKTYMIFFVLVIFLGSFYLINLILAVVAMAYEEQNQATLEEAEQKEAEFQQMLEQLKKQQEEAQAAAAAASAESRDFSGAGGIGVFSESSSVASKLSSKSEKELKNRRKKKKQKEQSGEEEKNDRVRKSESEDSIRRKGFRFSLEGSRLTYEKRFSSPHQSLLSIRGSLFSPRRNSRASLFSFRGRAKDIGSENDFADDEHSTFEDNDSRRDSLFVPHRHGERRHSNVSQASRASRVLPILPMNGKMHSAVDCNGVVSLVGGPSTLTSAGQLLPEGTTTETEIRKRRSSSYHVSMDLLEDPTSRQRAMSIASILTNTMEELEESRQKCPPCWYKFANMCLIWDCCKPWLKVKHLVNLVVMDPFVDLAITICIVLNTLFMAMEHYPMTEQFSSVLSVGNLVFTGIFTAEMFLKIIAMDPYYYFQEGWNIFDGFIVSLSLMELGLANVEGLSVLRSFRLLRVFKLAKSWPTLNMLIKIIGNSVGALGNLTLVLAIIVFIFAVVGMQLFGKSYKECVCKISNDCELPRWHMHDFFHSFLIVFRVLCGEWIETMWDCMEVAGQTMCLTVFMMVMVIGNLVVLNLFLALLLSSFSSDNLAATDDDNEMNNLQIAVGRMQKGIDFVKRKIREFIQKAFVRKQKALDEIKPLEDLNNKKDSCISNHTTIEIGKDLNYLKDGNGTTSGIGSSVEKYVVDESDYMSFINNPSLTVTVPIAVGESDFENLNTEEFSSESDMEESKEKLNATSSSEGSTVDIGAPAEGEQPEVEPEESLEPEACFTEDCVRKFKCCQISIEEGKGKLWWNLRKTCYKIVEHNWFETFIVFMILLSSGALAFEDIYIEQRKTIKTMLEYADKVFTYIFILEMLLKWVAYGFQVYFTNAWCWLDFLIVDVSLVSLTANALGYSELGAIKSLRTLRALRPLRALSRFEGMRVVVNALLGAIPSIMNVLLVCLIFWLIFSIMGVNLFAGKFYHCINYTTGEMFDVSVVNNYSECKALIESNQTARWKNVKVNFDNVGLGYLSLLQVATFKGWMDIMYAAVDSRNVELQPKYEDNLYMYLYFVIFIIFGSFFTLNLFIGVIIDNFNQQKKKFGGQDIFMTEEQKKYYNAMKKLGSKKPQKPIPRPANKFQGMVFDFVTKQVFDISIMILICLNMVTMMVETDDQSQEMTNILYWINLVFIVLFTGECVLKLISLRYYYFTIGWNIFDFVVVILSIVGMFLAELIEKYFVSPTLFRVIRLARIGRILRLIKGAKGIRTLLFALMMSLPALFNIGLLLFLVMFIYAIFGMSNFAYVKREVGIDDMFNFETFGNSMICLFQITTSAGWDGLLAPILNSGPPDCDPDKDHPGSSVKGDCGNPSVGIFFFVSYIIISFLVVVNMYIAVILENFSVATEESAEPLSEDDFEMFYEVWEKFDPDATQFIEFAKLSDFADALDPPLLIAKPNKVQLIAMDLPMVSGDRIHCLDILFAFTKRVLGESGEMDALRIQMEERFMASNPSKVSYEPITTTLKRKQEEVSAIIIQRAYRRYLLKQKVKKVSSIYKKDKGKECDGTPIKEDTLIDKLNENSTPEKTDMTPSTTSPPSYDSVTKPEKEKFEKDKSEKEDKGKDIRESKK

COc1ccc(-c2nc(-c3ccccc3)c[nH]2)cc1
Activity (Mus musculus [1]): inactive
Activity (Mus musculus [2]): inactive
Activity (Mus musculus [3]): Active
ED50 (Mus musculus [4]): 46.8 mg/kg
MED (Mus musculus [5]): 100 mg/kg
Activity (Mus musculus [6]): inactive
Activity (Mus musculus [7]): inactive
Activity (Mus musculus [8]): Toxic
Activity (Mus musculus [9]): Non-toxic
Activity (Mus musculus [10]): Toxic
Activity (Rattus norvegicus [11]): inactive
Activity (Mus musculus [12]): Active
Activity (Rattus norvegicus [13]): inactive
PI (Mus musculus [14]): 4.3
minimal effective dose (Mus musculus [15]): 100 mg/kg
minimal effective dose (Mus musculus [16]): 100 mg/kg
Activity (Mus musculus [17]): Active
Activity (Mus musculus [18]): inactive
Activity (Mus musculus [19]): Non-toxic
Activity (Rattus norvegicus [20]): inactive
Activity (Mus musculus [21]): Active
Activity (Mus musculus [22]): Non-toxic
Activity (Mus musculus [23]): Toxic
PI (Mus musculus [24]): 1.4
Activity (Rattus norvegicus [25]): inactive
Activity (Mus musculus [26]): Non-toxic
ED50 (Mus musculus [27]): 142 mg/kg
MED (Mus musculus [28]): 100 mg/kg
minimal effective dose (Mus musculus [29]): > 300 mg/kg
Activity (Mus musculus [30]): inactive
Activity (Mus musculus [31]): Non-toxic
Activity (Mus musculus [32]): Active
TD50 (Mus musculus [33]): 200.8 mg/kg
Activity (Mus musculus [34]): inactive
Activity (Mus musculus [35]): inactive
Activity (Mus musculus [36]): Non-toxic
Activity (Rattus norvegicus [37]): Non-toxic
IC50 [38]: 21.4 µM
Activity (Mus musculus [39]): Non-toxic
Activity (Mus musculus [40]): inactive
minimal effective dose (Mus musculus [41]): > 30 mg/kg

Source: ChEMBL document CHEMBL1275354, “Anticonvulsant activity of 2,4(1H)-diarylimidazoles in mice and rats acute seizure models” (Bioorg Med Chem, 2010)
